ChEMBL document CHEMBL4811306, “Fused benzo[1,3]thiazine-1,2,3-triazole hybrids: Microwave-assisted one-pot synthesis, in vitro antibacterial, antibiofilm, and in silico ADME studies” (2021)
In brackets after ≈: the same amount, converted by molar mass.

Experiments:
Type in all cases: functional
[1] = tested on: Pseudomonas aeruginosa; assay: Antibacterial activity against Pseudomonas aeruginosa assessed as inhibition of bacterial growth by standard broth microdilution method
[2] = tested on: Bacillus subtilis; assay: Antibacterial activity against Bacillus subtilis MTCC121 assessed as inhibition of bacterial growth by standard broth microdilution method
[3] = tested on: Klebsiella pneumoniae; assay: Antibacterial activity against Klebsiella pneumoniae assessed as inhibition of bacterial growth by standard broth microdilution method
[4] = tested on: Escherichia coli; assay: Antibacterial activity against Escherichia coli MTCC739 assessed as inhibition of bacterial growth by standard broth microdilution method
[5] = tested on: Staphylococcus epidermidis; assay: Antibacterial activity against Staphylococcus epidermidis MTCC435 assessed as inhibition of bacterial growth by standard broth microdilution method
[6] = tested on: Staphylococcus aureus; assay: Antibacterial activity against Staphylococcus aureus MTCC96 assessed as inhibition of bacterial growth by standard broth microdilution method
[7] = tested on: Pseudomonas aeruginosa; assay: Antibiofilm activity against Pseudomonas aeruginosa assessed as inhibition of biofilm formation
[8] = tested on: Staphylococcus aureus; assay: Antibiofilm activity against Staphylococcus aureus MTCC96 assessed as inhibition of biofilm formation
[9] = tested on: Bacillus subtilis; assay: Antibiofilm activity against Bacillus subtilis MTCC121 assessed as inhibition of biofilm formation
[10] = tested on: Escherichia coli; assay: Antibiofilm activity against Escherichia coli MTCC739 assessed as inhibition of biofilm formation
[11] = tested on: Staphylococcus epidermidis; assay: Antibiofilm activity against Staphylococcus epidermidis MTCC435 assessed as inhibition of biofilm formation
[12] = tested on: Staphylococcus epidermidis; assay: Potency index, ratio of ciprofloxacin MIC to test compound MIC for antibacterial activity against Staphylococcus epidermidis MTCC435
[13] = tested on: Bacillus subtilis; assay: Potency index, ratio of ciprofloxacin MIC to test compound MIC for antibacterial activity against Bacillus subtilis MTCC121

Row | MIC [1] | MIC [2] | MIC [3] | MIC [4] | MIC [5] | MIC [6] | Compound | BIC [7] | BIC [8] | BIC [9] | BIC [10] | BIC [11] | Ratio [12] | Ratio [13]
1 | > 50 µg/mL | 50 µg/mL (≈ 169 µM) | > 50 µg/mL | > 50 µg/mL | > 50 µg/mL | > 50 µg/mL | COc1ccc(-c2nnn3c2-c2ccccc2SC3)cc1 | – | – | – | – | – | – | –
2 | 50 µg/mL (≈ 161 µM) | 25 µg/mL (≈ 80.3 µM) | 50 µg/mL (≈ 161 µM) | 25 µg/mL (≈ 80.3 µM) | 25 µg/mL (≈ 80.3 µM) | 50 µg/mL (≈ 161 µM) | Cc1ccc(-c2nnn3c2-c2ccccc2S(=O)(=O)C3)cc1 | – | – | – | – | – | – | –
3 | > 50 µg/mL | 25 µg/mL (≈ 76.4 µM) | > 50 µg/mL | > 50 µg/mL | 25 µg/mL (≈ 76.4 µM) | 50 µg/mL (≈ 153 µM) | COc1ccc(-c2nnn3c2-c2ccccc2S(=O)(=O)C3)cc1 | – | – | – | – | – | – | –
4 | 1.56 µg/mL (≈ 4.71 µM) | 6.25 µg/mL (≈ 18.9 µM) | 3.12 µg/mL (≈ 9.42 µM) | – | 6.25 µg/mL (≈ 18.9 µM) | 3.12 µg/mL (≈ 9.42 µM) | O=C(O)c1cn(C2CC2)c2cc(N3CCNCC3)c(F)cc2c1=O [CIPROFLOXACIN] | 2.75 µg/mL | 4.88 µg/mL | 5.5 µg/mL | 4.29 µg/mL | 2.24 µg/mL | – | –
5 | 25 µg/mL (≈ 66.4 µM) | 12.5 µg/mL (≈ 33.2 µM) | 50 µg/mL (≈ 133 µM) | 6.25 µg/mL (≈ 16.6 µM) | 50 µg/mL (≈ 133 µM) | 25 µg/mL (≈ 66.4 µM) | O=S1(=O)Cn2nnc(-c3ccc(Br)cc3)c2-c2ccccc21 | 20.4 µg/mL | 28.1 µg/mL | 23.9 µg/mL | 10.9 µg/mL | 57.6 µg/mL | – | –
6 | > 50 µg/mL | > 50 µg/mL | 50 µg/mL (≈ 145 µM) | 25 µg/mL (≈ 72.6 µM) | > 50 µg/mL | 50 µg/mL (≈ 145 µM) | Brc1ccc(-c2nnn3c2-c2ccccc2SC3)cc1 | – | – | – | – | – | – | –
7 | 25 µg/mL (≈ 75.4 µM) | 3.12 µg/mL (≈ 9.4 µM) | 50 µg/mL (≈ 151 µM) | 50 µg/mL (≈ 151 µM) | 3.12 µg/mL (≈ 9.4 µM) | 6.25 µg/mL (≈ 18.8 µM) | O=S1(=O)Cn2nnc(-c3ccccc3Cl)c2-c2ccccc21 | 22.8 µg/mL | 5.88 µg/mL | 4.15 µg/mL | 48 µg/mL | 2.94 µg/mL | 2 | 2
8 | > 50 µg/mL | 50 µg/mL (≈ 168 µM) | > 50 µg/mL | > 50 µg/mL | 25 µg/mL (≈ 84.1 µM) | 25 µg/mL (≈ 84.1 µM) | O=S1(=O)Cn2nnc(-c3ccccc3)c2-c2ccccc21 | – | – | – | – | – | – | –
9 | 50 µg/mL (≈ 179 µM) | 50 µg/mL (≈ 179 µM) | 50 µg/mL (≈ 179 µM) | > 50 µg/mL | 50 µg/mL (≈ 179 µM) | > 50 µg/mL | Cc1ccc(-c2nnn3c2-c2ccccc2SC3)cc1 | – | – | – | – | – | – | –
10 | 50 µg/mL (≈ 153 µM) | 6.25 µg/mL (≈ 19.1 µM) | 25 µg/mL (≈ 76.4 µM) | 50 µg/mL (≈ 153 µM) | 12.5 µg/mL (≈ 38.2 µM) | 6.25 µg/mL (≈ 19.1 µM) | COc1cccc(-c2nnn3c2-c2ccccc2S(=O)(=O)C3)c1 | 47.3 µg/mL | 4.2 µg/mL | 3.5 µg/mL | 52.3 µg/mL | 24.8 µg/mL | – | –
11 | 50 µg/mL (≈ 167 µM) | 12.5 µg/mL (≈ 41.7 µM) | > 50 µg/mL | > 50 µg/mL | 25 µg/mL (≈ 83.4 µM) | 6.25 µg/mL (≈ 20.8 µM) | Clc1ccccc1-c1nnn2c1-c1ccccc1SC2 | 48 µg/mL | 10.7 µg/mL | 26.1 µg/mL | – | 21.2 µg/mL | – | –
12 | > 50 µg/mL | > 50 µg/mL | > 50 µg/mL | > 50 µg/mL | > 50 µg/mL | > 50 µg/mL | Cc1cccc(-c2nnn3c2-c2ccccc2SC3)c1 | – | – | – | – | – | – | –
13 | > 50 µg/mL | 25 µg/mL (≈ 84.6 µM) | > 50 µg/mL | 50 µg/mL (≈ 169 µM) | 50 µg/mL (≈ 169 µM) | 25 µg/mL (≈ 84.6 µM) | COc1cccc(-c2nnn3c2-c2ccccc2SC3)c1 | – | – | – | – | – | – | –
14 | > 50 µg/mL | 50 µg/mL (≈ 161 µM) | > 50 µg/mL | > 50 µg/mL | 50 µg/mL (≈ 161 µM) | > 50 µg/mL | Cc1cccc(-c2nnn3c2-c2ccccc2S(=O)(=O)C3)c1 | – | – | – | – | – | – | –
